1 compound from ChEMBL document CHEMBL5584243, “Discovery of JNJ-74856665: A Novel Isoquinolinone DHODH Inhibitor for the Treatment of AML” (J Med Chem, 2024) can be followed below.

The subject of series [1] is MOLM-13. The series can be described thus: Antiproliferative activity against human MOLM-13 cells assessed as inhibition of cell growth incubated for 72 hrs by CellTiter-Glo assay. It is filed as functional, cell-based. The note with it: MOLM-13, 72 h. Background: Cellular ATP, detected with luciferase, serves as a proxy for viable cell number.
Series [2] in a line: Equilibrium solubility of compound in PBS at pH 2 incubated for 2 to 5 days by HPLC analysis. Particulars: PBS, time 2-5 day. It is filed as physicochemical.
A short description of series [3]: Plasma protein binding in C57BL mouse at 1 uM incubated for 6.5 hrs by LC-MS/MS analysis. It is filed as ADME, cell-free. Particulars: read-out: PPB (converted).
Series [4] in a line: Volume of distribution at steady state in C57BL mouse at 2 mg/kg,iv measured upto 24 hrs by LC-MS/MS analysis. It is filed as ADME, organism-based. Particulars: in vivo, read-out: Vdss.
The nature of series [5]: Tmax in C57BL mouse at […] measured upto 24 hrs by LC-MS/MS analysis. It is filed as ADME, organism-based. Particulars: in vivo.
Series [6] is described as follows: AUC (0 to infinity) in C57BL mouse at 2 mg/kg,iv measured upto 24 hrs by LC-MS/MS analysis. It is filed as ADME, organism-based. The note with it: in vivo.
A short description of series [7]: Oral bioavailability in C57BL mouse at 10 mg/kg measured upto 24 hrs by LC-MS/MS analysis. It is filed as ADME, organism-based. The note with it: in vivo.
Series [8] in a line: Clearance in cynomolgus monkey at 1 mg/kg,iv. It is filed as ADME, organism-based, Macaca fascicularis. Particulars: in vivo.
The nature of series [9]: Volume of distribution at steady state in cynomolgus monkey at 1 mg/kg,iv. It is filed as ADME, organism-based, Macaca fascicularis. Particulars: in vivo, read-out: Vdss.
Series [10] in a line: Half life in cynomolgus monkey at 1 mg/kg,iv. Particulars: in vivo. It is filed as ADME, organism-based, Macaca fascicularis.
Series [11] can be described thus: Cmax in cynomolgus monkey at 10 mg/kg,po. It is filed as ADME, organism-based, Macaca fascicularis. The note with it: in vivo.
Series [12] in a line: Tmax in cynomolgus monkey at 10 mg/kg,po. It is filed as ADME, organism-based, Macaca fascicularis. Particulars: in vivo.
Series [13] in a line: AUC (0 to infinity) in cynomolgus monkey at 10 mg/kg,po. It is filed as ADME, organism-based, Macaca fascicularis. The note with it: in vivo.
A short description of series [14]: Half life in mouse hepatocyte. Particulars: hepatocytes. It is filed as ADME, cell-based.
Series [15] addresses CYP3A4 (Homo sapiens, UniProt P08684). The series can be described thus: Induction of CYP3A4 in cryopreserved human hepatocytes using midazolam as substrate assessed as fold change at 1 uM relative to control. It is filed as ADME, cell-based, Hepatocyte. Particulars: probe midazolam, read-out: FC.
A short description of series [16]: Inhibition of Sodium ion channel (unknown origin). The arrangement: species or system Homo sapiens.
Series [17] concerns the target T1, Kappa-type opioid receptor (Homo sapiens, UniProt P41145). The series can be described thus: Inhibition of KOP (unknown origin) at 10 uM relative to control.
Series [18] concerns the target T1, Kappa-type opioid receptor. The series can be described thus: Inhibition of KOP (unknown origin).
In series [19] the target is Dihydroorotate dehydrogenase (quinone), mitochondrial (Homo sapiens, UniProt Q02127). As to the kind of experiment: Binding affinity to recombinant human DHODH assessed as half life.
For series [20], the target named is Serine/threonine-protein kinase WNK2 (Homo sapiens) (UniProt Q9Y3S1). As to the kind of experiment: Inhibition of WNK2 (unknown origin) at 1 uM relative to control.
Series [21] has as its system MOLM-13. As to the kind of experiment: Antitumor activity against human MOLM-13 cells xenografted in NSG mouse assessed as tumor growth inhibition at 0.031 mg/kg,po administrated daily for 10 days relative to control. It is filed as functional. The note with it: MOLM-13, 240 h, time 10 day, read-out: TGI. In general terms: Xenograft models place foreign cells or tissue in a host animal.

Series [22] concerns MOLM-13. The series can be described thus: Antitumor activity against human MOLM-13 cells xenografted in NSG mouse assessed as tumor growth inhibition at 0.25 mg/kg,po administrated daily for 10 days relative to control. It is filed as functional. The note with it: MOLM-13, 240 h, time 10 day, read-out: TGI.

pIC50: −log10 of the molar value. In brackets after ≈: the same amount, converted by molar mass. A value given as a limit tells only on which side of the number the result lay.

T1 sequence (P41145 whole entry): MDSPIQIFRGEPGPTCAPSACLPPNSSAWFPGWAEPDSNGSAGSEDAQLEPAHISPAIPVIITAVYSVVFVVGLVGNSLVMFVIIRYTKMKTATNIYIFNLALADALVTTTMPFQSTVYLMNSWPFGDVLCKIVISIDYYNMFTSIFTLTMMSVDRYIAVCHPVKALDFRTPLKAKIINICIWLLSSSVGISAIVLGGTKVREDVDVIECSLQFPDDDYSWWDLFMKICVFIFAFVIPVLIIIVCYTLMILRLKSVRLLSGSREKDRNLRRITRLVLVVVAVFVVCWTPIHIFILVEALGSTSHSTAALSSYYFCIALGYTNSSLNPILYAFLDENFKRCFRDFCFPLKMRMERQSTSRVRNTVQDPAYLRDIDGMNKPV
CYP3A4, sequence (P08684 whole entry): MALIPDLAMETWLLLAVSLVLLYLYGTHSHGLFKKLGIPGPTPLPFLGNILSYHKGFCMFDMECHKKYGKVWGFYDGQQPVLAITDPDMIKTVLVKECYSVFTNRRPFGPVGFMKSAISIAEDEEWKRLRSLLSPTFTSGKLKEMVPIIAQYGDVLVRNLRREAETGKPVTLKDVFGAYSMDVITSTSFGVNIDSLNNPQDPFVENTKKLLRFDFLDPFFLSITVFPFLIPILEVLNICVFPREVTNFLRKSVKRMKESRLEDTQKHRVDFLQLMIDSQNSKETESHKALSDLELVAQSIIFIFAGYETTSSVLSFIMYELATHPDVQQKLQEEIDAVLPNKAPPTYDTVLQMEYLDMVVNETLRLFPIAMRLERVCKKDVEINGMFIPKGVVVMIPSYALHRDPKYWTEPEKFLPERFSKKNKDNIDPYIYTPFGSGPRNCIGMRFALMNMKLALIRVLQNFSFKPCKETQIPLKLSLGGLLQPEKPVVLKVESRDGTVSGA
Dihydroorotate dehydrogenase (quinone), mitochondrial, sequence (Q02127 whole entry): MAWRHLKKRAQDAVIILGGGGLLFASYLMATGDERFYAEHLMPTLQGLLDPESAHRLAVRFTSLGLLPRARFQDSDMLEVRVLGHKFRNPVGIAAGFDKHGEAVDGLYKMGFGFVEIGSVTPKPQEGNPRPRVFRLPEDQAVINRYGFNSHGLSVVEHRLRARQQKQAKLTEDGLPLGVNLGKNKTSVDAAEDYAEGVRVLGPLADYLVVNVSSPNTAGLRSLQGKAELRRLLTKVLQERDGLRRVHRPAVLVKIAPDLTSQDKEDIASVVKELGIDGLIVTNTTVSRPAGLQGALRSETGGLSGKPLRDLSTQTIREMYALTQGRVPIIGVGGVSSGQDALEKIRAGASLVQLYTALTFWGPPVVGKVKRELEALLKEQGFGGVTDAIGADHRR
Serine/threonine-protein kinase WNK2 (Homo sapiens), sequence (Q9Y3S1 whole entry): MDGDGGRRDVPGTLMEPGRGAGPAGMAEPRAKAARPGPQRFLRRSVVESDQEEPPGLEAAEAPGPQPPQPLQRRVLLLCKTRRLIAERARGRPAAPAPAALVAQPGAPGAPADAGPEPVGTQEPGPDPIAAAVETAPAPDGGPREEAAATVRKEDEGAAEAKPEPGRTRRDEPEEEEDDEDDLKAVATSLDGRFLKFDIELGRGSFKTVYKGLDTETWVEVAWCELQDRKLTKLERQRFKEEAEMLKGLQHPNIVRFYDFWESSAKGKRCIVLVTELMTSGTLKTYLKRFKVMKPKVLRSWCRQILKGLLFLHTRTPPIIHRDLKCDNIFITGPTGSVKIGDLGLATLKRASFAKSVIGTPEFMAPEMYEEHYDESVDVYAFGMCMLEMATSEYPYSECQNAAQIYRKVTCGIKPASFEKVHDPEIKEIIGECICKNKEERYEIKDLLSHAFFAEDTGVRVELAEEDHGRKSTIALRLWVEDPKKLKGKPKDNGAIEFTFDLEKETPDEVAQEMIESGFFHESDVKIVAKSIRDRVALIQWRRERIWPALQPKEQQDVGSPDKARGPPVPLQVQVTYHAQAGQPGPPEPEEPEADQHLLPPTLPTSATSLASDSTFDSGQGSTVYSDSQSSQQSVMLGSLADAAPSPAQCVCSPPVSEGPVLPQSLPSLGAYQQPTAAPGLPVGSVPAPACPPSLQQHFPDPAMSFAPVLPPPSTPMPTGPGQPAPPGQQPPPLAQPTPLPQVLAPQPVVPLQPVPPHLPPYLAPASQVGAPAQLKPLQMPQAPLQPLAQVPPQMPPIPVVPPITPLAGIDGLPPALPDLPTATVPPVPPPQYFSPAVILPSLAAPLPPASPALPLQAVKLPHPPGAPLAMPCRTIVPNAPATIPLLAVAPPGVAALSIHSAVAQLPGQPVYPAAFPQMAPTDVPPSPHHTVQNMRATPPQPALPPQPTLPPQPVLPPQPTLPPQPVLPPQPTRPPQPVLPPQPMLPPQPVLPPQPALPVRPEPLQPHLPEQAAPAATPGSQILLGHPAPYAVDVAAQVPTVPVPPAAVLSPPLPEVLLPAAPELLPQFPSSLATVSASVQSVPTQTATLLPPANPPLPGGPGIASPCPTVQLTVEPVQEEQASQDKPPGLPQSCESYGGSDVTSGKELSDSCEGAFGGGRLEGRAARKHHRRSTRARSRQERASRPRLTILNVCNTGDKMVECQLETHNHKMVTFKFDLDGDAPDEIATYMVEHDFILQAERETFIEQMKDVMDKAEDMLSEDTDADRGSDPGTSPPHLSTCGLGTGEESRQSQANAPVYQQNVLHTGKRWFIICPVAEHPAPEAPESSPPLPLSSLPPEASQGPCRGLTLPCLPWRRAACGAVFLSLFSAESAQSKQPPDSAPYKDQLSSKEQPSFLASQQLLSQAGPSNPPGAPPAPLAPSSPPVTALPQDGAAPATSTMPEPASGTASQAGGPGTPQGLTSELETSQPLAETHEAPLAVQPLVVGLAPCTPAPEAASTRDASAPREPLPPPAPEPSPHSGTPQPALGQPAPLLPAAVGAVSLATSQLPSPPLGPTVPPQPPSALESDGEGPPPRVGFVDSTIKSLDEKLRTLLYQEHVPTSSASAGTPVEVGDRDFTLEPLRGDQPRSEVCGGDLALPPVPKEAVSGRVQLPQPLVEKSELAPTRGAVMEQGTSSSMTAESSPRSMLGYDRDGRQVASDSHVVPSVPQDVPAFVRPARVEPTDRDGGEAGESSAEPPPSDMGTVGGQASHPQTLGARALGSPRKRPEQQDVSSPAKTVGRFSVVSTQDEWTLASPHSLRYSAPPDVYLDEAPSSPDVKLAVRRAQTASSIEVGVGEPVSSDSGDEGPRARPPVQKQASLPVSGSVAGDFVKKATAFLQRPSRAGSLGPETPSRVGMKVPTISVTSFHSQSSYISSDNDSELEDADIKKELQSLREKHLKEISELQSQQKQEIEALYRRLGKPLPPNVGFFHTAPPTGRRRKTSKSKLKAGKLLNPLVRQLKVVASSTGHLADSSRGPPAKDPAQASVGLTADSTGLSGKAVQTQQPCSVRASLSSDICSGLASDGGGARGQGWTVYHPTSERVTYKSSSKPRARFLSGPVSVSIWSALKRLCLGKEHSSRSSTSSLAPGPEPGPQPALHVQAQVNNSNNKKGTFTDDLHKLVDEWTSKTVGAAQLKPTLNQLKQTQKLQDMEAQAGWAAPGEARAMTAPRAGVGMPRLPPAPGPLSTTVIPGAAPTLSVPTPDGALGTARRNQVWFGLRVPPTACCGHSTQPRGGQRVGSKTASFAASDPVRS

On to `CCn1c(CO)nn(-c2cc3c(C(C)C)cn(-c4ccccc4C)c(=O)c3cc2F)c1=O`, for which the values for the negative-log IC50 (pIC50) in series [1], in series [16] and in [18] were 9.72, less than 5.00 and 4.85, respectively. The compound also registered a thermodynamic solubility in series [2] of 325 µM (≈ 142 µg/mL). Besides, the fraction unbound at 6.5 h, 1 µM in series [3] was 0.088. Moreover, the Vd in [4] was 1.6 L/kg; in series [9] it was 1.2 L/kg. Further, the Tmax in [5] came to 1.7 h; in series [12] it was 3.3 h. The same compound displayed an AUC in series [6] of 57200 ng·h/mL. The bioavailability in series [7] stood at 125%. In [8], this compound registered a clearance of 2.4 mL/min/kg. Further, the half-life is 6.4 h in series [10] and more than 6.18 h in [14]. The compound further yielded a maximum concentration (Cmax) in [11] of 5800 ng/mL. The compound further registered an AUC(0-inf) in series [13] of 64600 ng·h/mL. The fold induction at 1 µM in series [15] was less than 2. Moreover, the inhibition in series [17] was found to be 96%; in series [20], 51%. Moreover, the T1/2 in series [19] came to 0.328 h. The inhibition in vivo at 0.031 mg/kg in series [21] was found to be 42%. The inhibition in vivo at 0.25 mg/kg in [22] came out at 93%.

By pIC50 is commonly meant −log10 of the IC50, conventionally taken in molar units. As a reminder, the thermodynamic solubility is solubility found after equilibrating the solid with the medium. One may read the Tmax as the time at which the peak concentration occurs. As usually defined, the AUC is the area under the concentration-time curve, a measure of exposure. For orientation: clearance means a measure of how efficiently the substance is removed, as volume per time. A word on the half-life: it is the time in which the quantity being followed falls by half. One may read the Cmax as the highest concentration seen after dosing. One may read the AUC(0-inf) as total exposure, with the tail of the curve extrapolated. In general, inhibition refers to how much of the control response was suppressed.
